Results: the NIST ThermoML archive (doi:10.1016/j.jct.2016.02.009)

Experiment: molar heat capacity at constant pressure
Conditions: 101.33 kPa, Crystal 2, Small (less than 1 g) adiabatic calorimetry

CCCCCCCCCCCCCCCCn1cc[n+](C)c1.O=S(=O)([N-]S(=O)(=O)C(F)(F)F)C(F)(F)F
Conditions	molar heat capacity at constant pressure [J/K/mol]
5 K	3.58
5.4 K	4.43
5.7 K	5.11
6.07 K	6
6.51 K	7.15
7.03 K	8.58
7.55 K	10.13
8.08 K	11.79
8.61 K	13.56
9.15 K	15.43
9.69 K	17.38
10 K	18.51
10.24 K	19.41
10.84 K	21.73
11.53 K	24.47
12.23 K	27.33
12.92 K	30.31
13.62 K	33.36
14.33 K	36.54
15 K	39.66
15.04 K	39.85
15.87 K	43.67
16.8 K	48.11
17.74 K	52.48
18.67 K	56.86
19.62 K	61.3
20 K	63.15
20.86 K	67.23
22.4 K	74.52
23.97 K	81.98
25 K	86.78
25.53 K	89.27
27.13 K	96.62
28.72 K	103.9
30 K	109.7
30.29 K	111.1
32.02 K	118.8
33.92 K	126.8
35 K	131.4
35.82 K	134.8
37.72 K	142.5
39.62 K	150
40 K	151.7
41.61 K	158
43.71 K	166.2
45 K	171.3
45.8 K	174.3
47.91 K	182.4
50 K	190
50.02 K	190.2
52.13 K	197.8
54.23 K	205.2
56.35 K	212.4
58.48 K	219.5
60 K	224.6
60.6 K	226.5
62.72 K	233.3
64.85 K	240.1
66.98 K	246.6
69.1 K	253.2
70 K	255.9
71.33 K	259.9
73.67 K	266.6
76.02 K	273.4
78.38 K	280
80 K	284.5
80.57 K	286.3
80.73 K	286.6
82.48 K	291.2
83.09 K	292.8
84.4 K	296.1
86.33 K	301.2
88.27 K	306.3
90 K	310.8
90.22 K	311.2
92.18 K	316.2
94.15 K	321.1
96.13 K	326.1
98.11 K	331
100 K	335.5
100.1 K	335.8
102.15 K	340.8
104.27 K	345.7
106.4 K	350.6
108.54 K	355.4
110 K	358.8
110.68 K	360.3
112.83 K	365
114.99 K	369.8
117.15 K	374.5
119.31 K	379.2
120 K	380.5
121.48 K	383.7
123.65 K	388.2
125.82 K	392.8
128 K	397.3
130 K	401.4
130.17 K	401.7
132.35 K	406.2
134.53 K	410.6
136.71 K	415
138.9 K	419.3
140 K	421.7
141.08 K	423.7
143.27 K	428.1
145.46 K	432.5
147.65 K	436.9
149.84 K	441.2
150 K	441.5
152.03 K	445.6
154.22 K	449.8
156.4 K	454.1
158.59 K	458.5
160 K	461.2
160.78 K	462.8
162.97 K	467.2
165.16 K	471.4
167.34 K	475.7
169.53 K	479.8
170 K	480.8
171.71 K	484.1
173.9 K	488.4
176.08 K	492.8
178.26 K	497.1
180 K	500.5
180.45 K	501.5
182.63 K	505.9
184.82 K	510.1
187 K	514.3
189.17 K	518.6
190 K	520.4
191.35 K	523.1
193.52 K	527.5
195.69 K	531.7
197.86 K	536.3
200 K	540.8
200.02 K	540.9
202.25 K	545.6
204.54 K	550.5
206.82 K	555.5
209.11 K	560.4
210 K	562.3
211.39 K	565.4
213.67 K	570.5
215.95 K	575.6
218.21 K	580.9
220 K	585
220.48 K	586.3
222.74 K	591.8
225 K	597.1
227.25 K	602.4
229.5 K	607.7
230 K	609.3
231.74 K	613.5
233.97 K	619.4
236.21 K	625.3
238.43 K	631.2
